Measurements as given in patent US10537558B2 (Bantam Pharmaceutical, LLC, priority 2015, dated 2020).

Test system: BJAB cells
Experiment: BJAB cell proliferation (Cell Titer Glo)
Format: cell-based
Conditions: Homo sapiens, read-out: EC50
Experimental: Cells were seeded in white Corning Costar 96-well assay plates at 2500 cells/well in 50 μL of medium. Serial dilutions of test compounds were made in cell culture medium/FBS+0.2% DMSO, and transferred to assay plates in a volume of 50 μL (DMSO at 0.1% final). Plates were maintained at 37° C. for approximately 72 hours. The effect of compounds on cell proliferation was evaluated using the Cell Titer Glo reagent (Promega), according to the manufacturer's instructions. Briefly, 100 μL of reagent was added per well, and after a 10 minute incubation luminescence values were determined on a plate reader (Tecan F200PRO). The percent of luminescence signal relative to untreated controls was calculated for each compound concentration, and EC50 values were determined from dose response data by non-linear regression analysis using Prism (GraphPad). The mTor inhibitor Torin1 (Liu, et al. (2010) J. Med. Chem. 53, 7146.) was used as a control. The data are summarized in the compound table provided above.

Structure (SMILES)	EC50
COC(=O)c1c(Cc2ccccc2[N+](=O)[O-])c(C)nn1-c1nc(-c2ccc(Cl)c(Cl)c2)cs1 [Compound 1, methyl 1-(4-(3,4-dichlorophenyl)thiazol-2-yl)-3-methyl-4-(2-nitrobenzyl)-1H-pyrazole-5-carboxylate]	> 50 µM
Cc1nn(-c2nc(-c3ccc(Cl)c(Cl)c3)cs2)c(C(=O)O)c1Cc1ccccc1[N+](=O)[O-] [Compound 2, 1-(4-(3,4-dichlorophenyl)thiazol-2-yl)-3-methyl-4-(2-nitrobenzyl)-1H-pyrazole-5-carboxylic acid]	> 50 µM
CCSc1sc(-n2nc(C)c(Cc3ccccc3[N+](=O)[O-])c2C(=O)OC)nc1-c1ccc(Cl)c(Cl)c1 [Compound 3, methyl 1-(4-(3,4-dichlorophenyl)-5-(ethylthio)thiazol-2-yl)-3-methyl-4-(2-nitrobenzyl)-1H-pyrazole-5-carboxylate]	> 80 µM
CCSc1sc(-n2nc(C)c(Cc3ccccc3[N+](=O)[O-])c2C(=O)O)nc1-c1ccc(Cl)c(Cl)c1 [Compound 4, 1-(4-(3,4-dichlorophenyl)-5-(ethylthio)thiazol-2-yl)-3-methyl-4-(2-nitrobenzyl)-1H-pyrazole-5-carboxylic Acid]	50 to 100 µM
COC(=O)c1c(Cc2ccccc2[N+](=O)[O-])c(C)nn1-c1nc(-c2ccc(Cl)c(Cl)c2)c(SC(C)C)s1 [Compound 5, methyl 1-(4-(3,4-dichlorophenyl)-5-(isopropylthio)thiazol-2-yl)-3-methyl-4-(2-nitrobenzyl)-1H-pyrazole-5-carboxylate]	> 80 µM
Cc1nn(-c2nc(-c3ccc(Cl)c(Cl)c3)c(SC(C)C)s2)c(C(=O)O)c1Cc1ccccc1[N+](=O)[O-] [Compound 6, 1-(4-(3,4-dichlorophenyl)-5-(isopropylthio)thiazol-2-yl)-3-methyl-4-(2-nitrobenzyl)-1H-pyrazole-5-carboxylic acid]	25 to 50 µM
COC(=O)c1c(Cc2ccccc2NS(C)(=O)=O)c(C)nn1-c1nc(-c2ccc(Cl)c(Cl)c2)cs1 [Compound 7, methyl 1-(4-(3,4-dichlorophenyl)thiazol-2-yl)-3-methyl-4-(2-(methylsulfonamido)benzyl)-1H-pyrazole-5-carboxylate]	> 80 µM
Cc1nn(-c2nc(-c3ccc(Cl)c(Cl)c3)cs2)c(C(=O)O)c1Cc1ccccc1NS(C)(=O)=O [Compound 8, 1-(4-(3,4-dichlorophenyl)thiazol-2-yl)-3-methyl-4-(2-(methylsulfonamido)benzyl)-1H-pyrazole-5-carboxylic acid]	> 80 µM
CCCSc1sc(-n2nc(C)c(Cc3ccccc3[N+](=O)[O-])c2C(=O)OC)nc1-c1ccc(Cl)c(Cl)c1 [Compound 9, methyl 1-(4-(3,4-dichlorophenyl)-5-(propylthio)thiazol-2-yl)-3-methyl-4-(2-nitrobenzyl)-1H-pyrazole-5-carboxylate]	> 80 µM
CCCSc1sc(-n2nc(C)c(Cc3ccccc3[N+](=O)[O-])c2C(=O)O)nc1-c1ccc(Cl)c(Cl)c1 [Compound 10, 1-(4-(3,4-dichlorophenyl)-5-(propylthio)thiazol-2-yl)-3-methyl-4-(2-nitrobenzyl)-1H-pyrazole-5-carboxylic acid]	25 to 50 µM
CCCCSc1sc(-n2nc(C)c(Cc3ccccc3[N+](=O)[O-])c2C(=O)OC)nc1-c1ccc(Cl)c(Cl)c1 [Compound 11, methyl 1-(5-(butylthio)-4-(3,4-dichlorophenyl)thiazol-2-yl)-3-methyl-4-(2-nitrobenzyl)-1H-pyrazole-5-carboxylate]	> 80 µM
CCCCSc1sc(-n2nc(C)c(Cc3ccccc3[N+](=O)[O-])c2C(=O)O)nc1-c1ccc(Cl)c(Cl)c1 [Compound 12, 1-(5-(butylthio)-4-(3,4-dichlorophenyl)thiazol-2-yl)-3-methyl-4-(2-nitrobenzyl)-1H-pyrazole-5-carboxylic Acid]	> 80 µM
CCCSc1sc(-n2nc(C)c(Cc3ccccc3NS(C)(=O)=O)c2C(=O)O)nc1-c1ccc(Cl)c(Cl)c1 [Compound 13, 1-(4-(3,4-dichlorophenyl)-5-(propylthio)thiazol-2-yl)-3-methyl-4-(2-(methylsulfonamido)benzyl)-1H-pyrazole-5-carboxylic Acid]	25 to 50 µM
CCCSc1sc(-n2nc(C)c(Cc3ccccc3NS(C)(=O)=O)c2C(=O)N2CCC(CN)CC2)nc1-c1ccc(Cl)c(Cl)c1 [Compound 14, N-(2-((5-(4-(aminomethyl)piperidine-1-carbonyl)-1-(4-(3,4-dichlorophenyl)-5-(propylthio)thiazol-2-yl)-3-methyl-1H-pyrazol-4-yl)methyl)phenyl)methanesulfonamide]	10 to 25 µM
Cc1nn(-c2nc(-c3ccc(Cl)c(Cl)c3)c(SC(C)C)s2)c(C(=O)O)c1Br [Compound 15, 4-bromo-1-(4-(3,4-dichlorophenyl)-5-(isopropylthio)thiazol-2-yl)-3-methyl-1H-pyrazole-5-carboxylic Acid]	10 to 25 µM
Cc1cc(C(=O)O)n(-c2nc(-c3ccc(Cl)c(Cl)c3)c(SC(C)C)s2)n1 [Compound 16, 1-(4-(3,4-dichlorophenyl)-5-(isopropylthio)thiazol-2-yl)-3-methyl-1H-pyrazole-5-carboxylic Acid]	50 to 100 µM
Cc1nn(-c2nc(-c3ccc(Cl)c(Cl)c3)c(SC(C)C)s2)c(C(=O)O)c1-c1ccc2nccn2c1 [Compound 17, 1-(4-(3,4-dichlorophenyl)-5-(isopropylthio)thiazol-2-yl)-4-(imidazo[1,2-a]pyridin-6-yl)-3-methyl-1H-pyrazole-5-carboxylic Acid]	10 to 25 µM
Cc1nn(-c2nc(-c3ccc(Cl)c(Cl)c3)c(SC(C)C)s2)c(C(=O)O)c1-c1ccccc1 [Compound 18, 1-(4-(3,4-dichlorophenyl)-5-(isopropylthio)thiazol-2-yl)-3-methyl-4-phenyl-1H-pyrazole-5-carboxylic Acid]	1 to 5 µM
Cc1nn(-c2nc(-c3ccc(Cl)c(Cl)c3)c(SC3CCCCC3)s2)c(C(=O)O)c1Cc1ccccc1[N+](=O)[O-] [Compound 19, 1-(5-(cyclohexylthio)-4-(3,4-dichlorophenyl)thiazol-2-yl)-3-methyl-4-(2-nitrobenzyl)-1H-pyrazole-5-carboxylic Acid]	10 to 25 µM
Cc1nn(-c2nc(-c3ccc(Cl)c(Cl)c3)c(SC(C)C)s2)c(C(=O)O)c1-c1cc2ccccc2o1 [Compound 20, 4-(benzofuran-2-yl)-1-(4-(3,4-dichlorophenyl)-5-(isopropylthio)thiazol-2-yl)-3-methyl-1H-pyrazole-5-carboxylic Acid]	5 to 10 µM
Cc1nn(-c2nc(-c3ccc(Cl)c(Cl)c3)c(SC(C)C)s2)c(C(=O)O)c1-c1ccnc(F)c1 [Compound 21, 1-(4-(3,4-dichlorophenyl)-5-(isopropylthio)thiazol-2-yl)-4-(2-fluoropyridin-4-yl)-3-methyl-1H-pyrazole-5-carboxylic acid]	5 to 10 µM
Cc1cc(-c2c(C)nn(-c3nc(-c4ccc(Cl)c(Cl)c4)c(SC(C)C)s3)c2C(=O)O)cc(C)n1 [Compound 23, 1-(4-(3,4-dichlorophenyl)-5-(isopropylthio)thiazol-2-yl)-4-(2,6-dimethylpyridin-4-yl)-3-methyl-1H-pyrazole-5-carboxylic Acid]	< 1 µM
Cc1nn(-c2nc(-c3ccc(Cl)c(Cl)c3)c(SC(C)C)s2)c(C(=O)O)c1-c1cc(F)cc(F)c1 [Compound 24, 1-(4-(3,4-dichlorophenyl)-5-(isopropylthio)thiazol-2-yl)-4-(3,5-difluorophenyl)-3-methyl-1H-pyrazole-5-carboxylic Acid]	1 to 5 µM
Cc1nn(-c2nc(-c3cc(Cl)ccc3F)c(SC(C)C)s2)c(C(=O)O)c1-c1cc(Cl)cc(Cl)c1 [Compound 25, 1-(4-(5-chloro-2-fluorophenyl)-5-(isopropylthio)thiazol-2-yl)-4-(3,5-dichlorophenyl)-3-methyl-1H-pyrazole-5-carboxylic Acid]	1 to 5 µM
Cc1cc(-c2c(C)nn(-c3nc(-c4cc(Cl)ccc4F)c(SC(C)C)s3)c2C(=O)O)cc(C)n1 [Compound 26, 1-(4-(5-chloro-2-fluorophenyl)-5-(isopropylthio)thiazol-2-yl)-4-(2,6-dimethylpyridin-4-yl)-3-methyl-1H-pyrazole-5-carboxylic Acid]	5 to 10 µM
Cc1noc(C)c1-c1nc(-n2nc(C)c(-c3cc(Cl)cc(Cl)c3)c2C(=O)O)sc1SC(C)C [Compound 27, 4-(3,5-dichlorophenyl)-1-(4-(3,5-dimethylisoxazol-4-yl)-5-(isopropylthio)thiazol-2-yl)-3-methyl-1H-pyrazole-5-carboxylic Acid]	> 25 µM
Cc1nn(-c2nc(-c3cnn(C)c3)c(SC(C)C)s2)c(C(=O)O)c1-c1cc(Cl)cc(Cl)c1 [Compound 28, 4-(3,5-dichlorophenyl)-1-(5-(isopropylthio)-4-(1-methyl-1H-pyrazol-4-yl)thiazol-2-yl)-3-methyl-1H-pyrazole-5-carboxylic Acid]	> 25 µM
Cc1nn(-c2nc(-c3ccncc3)c(SC(C)C)s2)c(C(=O)O)c1-c1cc(Cl)cc(Cl)c1 [Compound 29, 4-(3,5-dichlorophenyl)-1-(5-(isopropylthio)-4-(pyridin-4-yl)thiazol-2-yl)-3-methyl-1H-pyrazole-5-carboxylic acid]	> 25 µM
Cc1nn(-c2nc(-c3cccnc3)c(SC(C)C)s2)c(C(=O)O)c1-c1cc(Cl)cc(Cl)c1 [Compound 30, 4-(3,5-dichlorophenyl)-1-(5-(isopropylthio)-4-(pyridin-3-yl)thiazol-2-yl)-3-methyl-1H-pyrazole-5-carboxylic acid]	> 25 µM
